Measured values as given in ChEMBL document CHEMBL4330059, “Discovery of N1-(4-((7-(3-(4-ethylpiperazin-1-yl)propoxy)-6-methoxyquinolin-4-yl)oxy)-3,5-difluorophenyl)-N3-(2-(2,6-difluorophenyl)-4-oxothiazolidin-3-yl)urea as a multi-tyrosine kinase inhibitor for drug-sensitive and drug-resistant cancers treatment” (Eur J Med Chem, 2019).
Activity calls are given as the source filed them. The calls are words filed in the database; no cut-off is given here.

Key:
A549 = experiment: Antiproliferative activity against human A549 cells after 72 hrs by MTT assay; format: functional, cell-based; settings: A549, 72 h
MDA-MB-231 = experiment: Antiproliferative activity against human MDA-MB-231 cells after 72 hrs by MTT assay; format: functional, cell-based; settings: MDA-MB-231, 72 h
HT-29 [1] = experiment: Antiproliferative activity against human HT-29 cells after 72 hrs by MTT assay; format: functional, cell-based; settings: HT-29, 72 h
MCF7 = experiment: Antiproliferative activity against human MCF7 cells after 72 hrs by MTT assay; format: functional, cell-based; settings: MCF7, 72 h
[2] = Antiproliferative activity against human MCF7/DX cells after 72 hrs by MTT assay; format: functional, cell-based
[3] = Selectivity index, ratio of IC50 for human FHC cells to IC50 for human HT-29 cells; format: toxicity; settings: FHC cells and HT-29 cells, read-out: Ratio IC50
A549/CDDP = experiment: Antiproliferative activity against human A549/CDDP cells after 72 hrs by MTT assay; format: functional, cell-based
FHC = experiment: Cytotoxicity against human FHC cells after 72 hrs by MTT assay; format: cell-based
HT-29 [4] = experiment: Induction of apoptosis in human HT-29 cells assessed as early apoptotic cells at 5 ug/mL after 72 hrs by Annexin V-FITC/propidium iodide staining-based flow cytometric analysis (reference value: 0%); format: functional
HT-29 [5] = experiment: Antiproliferative activity against human HT-29 cells at 3.33 ug/ml after 36 to 72 hrs by phase contrast microscopy; format: functional, cell-based
HT-29 [6] = experiment: Cytotoxicity against human HT-29 cells assessed as increase in dead cells at 10 ug/mL up to 36 hrs by yoyo-1 dye-based fluorescence assay; format: functional, cell-based
HT-29 [7] = experiment: Antiproliferative activity against human HT-29 cells at 10 ug/ml after 72 hrs by IncuCyte live-cell imaging assay; format: functional, cell-based
HT-29 [8] = experiment: Induction of apoptosis in human HT-29 cells assessed as late apoptotic cells at 5 ug/mL after 72 hrs by Annexin V-FITC/propidium iodide staining-based flow cytometric analysis (reference value: 0.1%); format: functional
HT-29 [9] = experiment: Antimigratory activity against human HT-29 cells at 3.33 ug/mL after 48 to 72 hrs by wound healing assay; format: functional, cell-based

IC50 (A549) [µM] | IC50 (MDA-MB-231) [µM] | IC50 (HT-29 [1]) [µM] | Compound | further results
1.63 | 4.35 | 0.41 | COc1cc2c(Oc3c(F)cc(NC(=O)NN4C(=O)CCSC4c4c(F)cccc4F)cc3F)ccnc2cc1OCCCN1CCC(C)CC1 (stereo not given) | 
1.93 |  | 0.47 | COc1cc2c(Oc3c(F)cc(NC(=O)NN4C(=O)CSC4c4c(F)cccc4F)cc3F)ccnc2cc1OCCCN1C[C@H]2CCCC[C@H]2C1 (stereo not given in full) | 
0.4 | 9.65 | 0.27 | COc1cc2c(Oc3c(F)cc(NC(=O)NN4C(=O)CCSC4c4c(F)cccc4F)cc3F)ccnc2cc1OCCCN1CCCC1 (stereo not given) | 
0.38 | 5.38 | 0.28 | COc1cc2c(Oc3c(F)cc(NC(=O)NN4C(=O)CSC4c4c(F)cccc4F)cc3F)ccnc2cc1OCCCN1CCC(N2CCCCC2)CC1 (stereo not given) | 
1.52 | 5.91 | 0.35 | CCN1CCN(CCOc2cc3nccc(Oc4c(F)cc(NC(=O)NN5C(=O)CSC5c5c(F)cccc5F)cc4F)c3cc2OC)CC1 (stereo not given) | 
0.56 | 8.35 | 0.23 | COc1cc2c(Oc3c(F)cc(NC(=O)NN4C(=O)CSC4c4c(F)cccc4F)cc3F)ccnc2cc1OCCCN1CCCC1 (stereo not given) | 
2.38 |  | 0.49 | COc1cc2c(Oc3c(F)cc(NC(=O)NN4C(=O)CSC4c4c(F)cccc4F)cc3F)ccnc2cc1OCCN1CCC(N2CCCCC2)CC1 (stereo not given) | 
0.97 | 3.83 | 0.22 | COc1cc2c(Oc3c(F)cc(NC(=O)NN4C(=O)CSC4c4c(F)cccc4F)cc3F)ccnc2cc1OCCCN1CCC(C)CC1 (stereo not given) | 
0.51 | 4.36 | 0.15 | COc1cc2c(Oc3c(F)cc(NC(=O)NN4C(=O)CSC4c4c(F)cccc4F)cc3F)ccnc2cc1OCCCN1CCN(C)CC1 (stereo not given) | 

The next lines start with the compound.

Compound | IC50 (A549) [µM] | IC50 (MDA-MB-231) [µM] | IC50 (HT-29 [1]) [µM] | further results
COc1cc2c(Oc3c(F)cc(NC(=O)NN4C(=O)C(C)(C)SC4c4c(F)cccc4F)cc3F)ccnc2cc1OCCCN1CCCC1 (stereo not given) | 1.45 |  | 0.95 | 
COc1cc2c(Oc3c(F)cc(NC(=O)NN4C(=O)CCSC4c4c(F)cccc4F)cc3F)ccnc2cc1OCCCN1CCc2sccc2C1 (stereo not given) | > 20 |  | 1.32 | 
COc1cc2c(Oc3c(F)cc(NC(=O)NN4C(=O)CCSC4c4c(F)cccc4F)cc3F)ccnc2cc1OCCCN1C[C@H]2CCCC[C@H]2C1 (stereo not given in full) | 3.61 |  | 0.79 | 
COc1cc2c(Oc3ccc(NC(=O)NN4C(=O)CSC4c4c(F)cccc4F)cc3F)ccnc2cc1OCCCN1CCCC1 (stereo not given) | 0.69 | 9.04 | 0.35 | 
CCN(CC)CCCOc1cc2nccc(Oc3c(F)cc(NC(=O)NN4C(=O)CSC4c4c(F)cccc4F)cc3F)c2cc1OC (stereo not given) | 0.45 | 3.79 | 0.091 | IC50 (MCF7): 1.6 µM; IC50 [2]: 3.4 µM; selectivity ratio [3]: 5.9; IC50 (A549/CDDP): 0.54 µM; IC50 (FHC): 0.54 µM
COc1cc2c(Oc3ccc(NC(=O)NN4C(=O)CSC4c4c(F)cccc4F)c(Cl)c3)ccnc2cc1OCCCN1CCCC1 (stereo not given) | 0.96 |  | 0.63 | 
COc1cc2c(Oc3ccc(NC(=O)NN4C(=O)CSC4c4c(F)cccc4F)c4ccccc34)ccnc2cc1OCCCN1CCCC1 (stereo not given) | 2.36 |  | 1.86 | 
COc1cc2c(Oc3ccc(NC(=O)NN4C(=O)CSC4c4c(F)cccc4F)cc3Cl)ccnc2cc1OCCCN1CCCC1 (stereo not given) | 0.88 |  | 0.48 | 
COc1cc2c(Oc3c(F)cc(NC(=S)NN4C(=O)CSC4c4c(F)cccc4F)cc3F)ccnc2cc1OCCCN1CCCC1 (stereo not given) | 0.69 | 8.12 | 0.41 | 
COc1cc2nccc(Oc3ccc(NC(=O)C4(C(=O)Nc5ccc(F)cc5)CC4)cc3)c2cc1OC [CABOZANTINIB] | 9.52 | 13.4 | 11.5 | IC50 (MCF7): 8.57 µM; Activity (HT-29 [4]): 78.4%; IC50 [2]: > 50 µM; Activity (HT-29 [5]): Active; IC50 (A549/CDDP): 19.6 µM; Activity (HT-29 [6]): Active; IC50 (FHC): 4.4 µM; Activity (HT-29 [7]): Active; Activity (HT-29 [8]): 10.9%; Activity (HT-29 [9]): Active
COc1cc2c(Oc3c(F)cc(NC(=O)NN4C(=O)CSC4c4c(F)cccc4F)cc3F)ccnc2cc1OCCCN1CCc2sccc2C1 (stereo not given) | > 20 |  | 1.41 | 
COc1cc2c(Oc3c(F)cc(NC(=O)NN4C(=O)C(C)SC4c4c(F)cccc4F)cc3F)ccnc2cc1OCCCN1CCCC1 (stereo not given) | 0.83 |  | 0.67 | 
CCN1CCN(CCCCOc2cc3nccc(Oc4c(F)cc(NC(=O)NN5C(=O)CSC5c5c(F)cccc5F)cc4F)c3cc2OC)CC1 (stereo not given) | 1.39 |  | 0.83 | 
